Source: US20060167037A1, “Combinational radiotherapy and chemotherapy compositions and methods” (priority 2003, published 2006)

Columns and labels:
Format in all cases: cell-based
[1] = test system: cancer cell lines to human breast, prostate, ovarian, pancreatic and cervical cancers; assay: Radiosensitisation of cancer cell lines on culture plates (cell viability by CellTiter, apoptosis by Hoechst 33342 dye); conditions: pre-treatment (1 day and 8 hour) and sequential/post-treatment (−30 min/+4 h) regimes, at 2 and 10 μM
Procedure: The effect of a selection of isoflavonoid compounds on various cancer cell lines subjected to radiotherapy was assessed on culture plates. Cell viability was determined using CellTiter®. Apoptosis was evaluated using Hoechst 33342 dye.
32 and 39 (at 2 and 10 μM).

cancer cells [2] = assay: Synergistic interaction with death receptor ligands and growth receptor inhibitors; conditions: growth receptor inhibitors eg. of EGF, PDGF, FGF, TNF and IGF receptors
cancer cells [3] = assay: Synergy with the chemotherapeutics cisplatin and gemcitabine

SMILES | radiosensitisation of cancer cell lines subjected to radiotherapy [1] | synergistic interaction with interferon-gamma, Fas ligand, TRAIL ligand, growth receptor inhibitors (cancer cells [2]) | synergy with the effect of chemotherapeutics such as cisplatin and gemcitabine (cancer cells [3])
COc1ccc(C2c3ccc(O)cc3OCC2c2ccc(O)cc2)cc1 (stereo not shown) [compound 32] | radiosensitised | synergistic interaction | –
COc1ccc(C2c3ccc(O)c(C)c3OCC2c2ccc(O)cc2)cc1 (stereo not shown) [compound 39] | radiosensitised | synergistic interaction | –
Oc1ccc(C2=Cc3ccc(O)cc3OC2)cc1 [Cpd. 12, dehydroequol] | radiosensitised | synergistic interaction | synergise
